{
  "source": "patent US7595300B2",
  "about": "“7-quinolyl ketolide antibacterial agents” (priority 2005, dated 2009)",
  "key": {"P. granulosum": {"system": "P. granulosum", "assay": "MIC, NCCLS Reference Agar Dilution Method for anaerobic bacteria", "assay_type": "cell-based, Propionibacterium granulosum", "protocol": "Minimum inhibitory concentrations (“MICs”) were determined by the NCCLS Reference Agar Dilution Method (M11-A5, Vol. 21, No. 2) for anaerobic bacteria. A panel of 84 antibiotic-susceptible and resistant strains of Propionibacteria from distinct geographic locations were selected. Following revival from frozen stocks, each strain was purity plated onto Wilkins Chalgren Agar, pH 7.2 (Oxoid, UK), and the appropriate antibiotic resistance/susceptibility phenotype was confirmed by antibiotic disc testing. Each strain was subjected to an agar dilution MIC assay. […] The inocula for each batch of strains were prepared from 7-day old Wilkins Chalgren Agar plate cultures by resuspension of colonies in Wilkins Chalgren Anaerobe broth, pH 7.2 (Oxoid, UK) to an optical density (OD600) of 0.2±0.02. The inoculum (1.0-2.0 μL) for each strain was applied to a Wilkins Chalgren Agar MIC plate in a grid pattern using a Multipoint Inoculator (Denley, UK). All agar plates were incubated at 37° C. for 3 days under anaerobic conditions in AnaeroPack 7 liter rectangular jars (Mitsubishi Gas Chemical Company, Inc., Japan)."}, "[1]": {"assay": "Pharmacokinetics in the mouse, plasma and lung tissue", "assay_type": "in vivo", "conditions": "oral gavage 10 mg/kg", "protocol": "The pharmacokinetics of compounds of formula (VIII) and compounds of formula (II) and (III) were measured in the mouse. Compounds were administered either intravenously (i.v.) at 1 mg/kg, or per oral gavage (p.o.) at 10 mg/kg. Plasma samples were taken and analyzed by LC/MS-MS. For lung tissue pharmacokinetics, lungs were removed and homogenized, followed by analyzis by LC/MS-MS."}, "[2]": {"assay": "Skin penetration of topical formulations, Franz static diffusion cells", "assay_type": "in vitro ADME, human", "conditions": "first experiment, dibutyl sebacate", "protocol": "The penetration of compound (III) formulated in various vehicles into human skin was determined. Franz static diffusion cells (15 mm diameter orifice, o-ring joint) were mounted on 9-cell manifolds and maintained at a constant temperature by use of re-circulating water baths set at 32° C. These cells have an opening with a nominal area of 1.77 cm^2 and a receptor compartment with a volume ranging between 12 to 14 ml. Each diffusion cell was assembled by placing a disk shaped section of excised human skin (obtained from elective surgery) over the orifice of the receptor (bottom) compartment. A Teflon® O-ring was placed on top of the skin before the donor cap was added (top compartment). This diffusion area was then secured in place by a pinch clamp, ensuring an adequate seal between the donor and receptor compartments. The joint between the donor and receptor compartments of each cell was wrapped with Parafilm® (American Can Company) to prevent evaporation of the receptor phase. Each cell was then filled with the receptor phase consisting of phosphate buffered saline with 0.1% sodium azide and 4% bovine serum albumin (w/w/w) at 32° C. Any air bubbles present under the tissue were removed prior to dosing. […]\nApproximately 10 mg/cm^2 of each formulation was dosed onto the tissue surfaces of five cells. […] Samples were analyzed for drug content by LC/MS-MS. […]"}},
  "data": [
    {"compound": "CC1CC(N(C)C)C(O)C(O[C@@H]2[C@@H](C)C(=O)[C@](C)(F)C(=O)O[C@H](CCF)[C@@]3(C)OC(=O)N[C@@H]3[C@@H](C)C(=O)[C@H](C)C[C@@]2(C)OC/C=C/c2ccc3cccnc3c2)O1", "note": "(stereo partly drawn) [Compound (III), 6-O-(1-(7-quinolyl)-3-propenyl)-11-amino-11-deoxy-3-(descladinosyl)-3-oxo-2,15-difluoroerythromycin A-11,12-cyclic carbamate]", "values": [
      {"measurement": "MIC range", "setting": "P. granulosum; marker RNA 2058, phenotype EryR", "result": 8, "unit": "µg/mL"},
      {"measurement": "MIC range", "setting": "P. granulosum; marker RNA 2059, phenotype EryR", "result": "0.125 to 2", "unit": "µg/mL"},
      {"measurement": "MIC range", "setting": "P. granulosum; marker ermX, phenotype EryR", "result": "4 to 32", "unit": "µg/mL"},
      {"measurement": "MIC range", "setting": "P. granulosum; marker none, phenotype none", "result": 0.06, "unit": "µg/mL"},
      {"measurement": "Lung AUC", "setting": "[1]; mouse lung tissue", "result": 45.9, "unit": "ug/mL-h"},
      {"measurement": "Lung Cmax", "setting": "[1]; mouse lung tissue", "result": 8700, "unit": "ng/mL"},
      {"measurement": "AUC", "setting": "[1]; mouse plasma", "result": 16200, "unit": "ng·h/mL"},
      {"measurement": "Cmax", "setting": "[1]; mouse plasma", "result": 3000, "unit": "ng/mL"},
      {"measurement": "Highest dermal penetration", "setting": "[2]", "result": "5.7 % of applied dose"}
    ]}
  ]
}
